Assay results as given in US7781417B2, “Cyclodextrin dimers and derivatives thereof, methods for preparing them and their use, in particular, for the solubilizing pharmacologically active substances” (Centre National de la Recherche Scientifique, priority 2003, dated 2010).
“And” between values parts separate entries of the source, which are not always exact repeats. Identical values can stand only once. Like-named read-outs stand apart in the source and are kept apart here.

Legend:
[1] = solubility in water of the cyclodextrin (dimer) derivative; type: physicochemical
[2] = target: mannose-specific lectin concanavalin A (ConA) (Canavalia ensiformis, UniProt P02866); assay: ELLA (Enzyme-Linked Lectin Assay): inhibition of the combination of yeast mannan and horse-radish peroxidase-labelled ConA; type: binding; conditions: for Relative affinity / Relative molar affinity: relative to Me-α-D-Glcp = 1
Method: The affinity of the ureido-, thioureido-, ureidocysteaminyl- and thioureidocysteaminyl-cyclodextrin dimers of the invention which incorporate glucide substituents for specific membrane lectins in vitro is evaluated according to the ELLA (“Enzyme-Linked Lectin Assay”) protocol. Numerous examples of application of this protocol can be found in the article by J. J. Lundquist and E. J. Toon in Chem. Rev. 2002, 102, pp. 555-578. This technique measures the ability of a soluble mono- or oligosaccharide ligand to inhibit the association between a complementary lectin and another reference ligand bound to a plastic support microplate. Thus, the ureido-, thioureido-, ureidocysteaminyl- and thioureidocysteaminyl-cyclodextrin dimers carrying α-D-mannopyranosyl substituents are recognized by concanavalin A or by the mannose-specific lectin of the macrophages, the derivatives with β-lactosyl substituents are recognized by the lactose-specific lectin of Arachys hypogaea or hepatocytes, and the derivatives comprising the tetrasaccharide sialyl-Lewis X substituent are recognized by the selectins of the endothelium involved in the inflammation method.
The affinity of compounds no. 5 to 8 for the mannose-specific lectin concanavalin A (ConA) was evaluated according to the test ELLA protocol. The concentration of compounds no. […] The IC50 values are inversely proportional to the respective affinities.
The microtitration plate cells (Nunc-Immuno™ plates MaxiSorp™) are charged with 100 μl of a yeast mannan stock solution (Sigma, […]) in a saline phosphate buffer solution (PBS; pH 7.3 containing Ca^2+ 0.1 mM and Mn^2+ 0.1 mM) overnight at ambient temperature. The cells are washed (3×300 μl) with a buffer solution containing 0.05% (v/v) Tween 20 (PBTS). This washing protocol is repeated after each incubation during the test. A bovine serum albumin solution (BSA, 1%) in PBS (150 μg/cell) is then added to the cells, followed by incubation for 1 h at 37° C. and then washing.
To determine the optimum lectin concentration for the inhibition studies, 100 μl of a series of Con A solutions labelled with 10^−1 to 10^−5 mg.ml^−1 horse-radish peroxidase in PBS is added to the cells charged with the mannan, followed by treating as indicated above. After incubation at 37° C. for 1 hour, the plates are washed (PBST) and a solution (50 μl) of the diammonium salt of 2,2′-azinobis(3-ethylbenzothiazoline-6-sulphonic) acid (ABTS, 1 mg in 4 ml) in citrate buffer is added (0.2 M; pH 4.0 with 0.015% of oxygenated water). The reaction is stopped after 20 minutes by adding 50 μl/cell sulphuric acid 1 M and the absorbances are measured at 415 nm using an ELISA reader. The sample cells contain the citrate-phosphate buffer. The concentration of lectin marked with peroxidase giving an absorbance value between 0.8 and 1.0 (typically between 10^−2 and 10^−3 mg/ml^−1) was used in the inhibition assays.
For inhibition assays, stock solutions of compounds no. 5 to 8 were used at a concentration of 5 to 7 mg/ml^−1 in PBS. In a series of experiments, ConA marked with horse-radish peroxidase of suitable concentration as indicated above (60 μl/cell) is added to the solutions of each compound (60 μl/cell) in PBS, double-diluted in sequence, in a Nunclon™(Delta) microtitration plate which is incubated at 37° C. for 1 hour. The solutions (100 μl/cell) are then transferred to a microtitration plate charged with mannan and treated as indicated above, then being incubated at 37° C. for 1 hour. The cells are washed (PBST) and ABTS solution added (50 μl/cell). After 20 minutes, the reaction is stopped (sulphuric acid) and the absorbances are measured.
The inhibition percentage is calculated by the formula: […]

[3] = inclusion of Taxotere into the cyclodextrin dimer: solubility of Taxotere in sterile water; type: physicochemical
Method: (§1) Taxotere in the pure state is used to start with and 8.3 mg (9.7 μmol) of this product is dispersed in 1 ml of a solution containing 10 mmol.l^−1 of compound no. 3 in sterile water, then the obtained suspension is stirred at 70° C. until a clear solution is obtained which signals the complexation of the Taxotere.
as §1, with “6.6” for “8.3”, “(7.7” for “(9.7”, “8 mmol/l^−1” for “10 mmol.l^−1”, “6” for “3”
as §1, with “5.8” for “8.3”, “([…]” for “(9.7”, “7 mmol/l^−1” for “10 mmol.l^−1”, “6” for “3”

[4] = inhibition of ConA-HRP binding to yeast mannan fixed to microtitration plate, average of three independent experiments, read-out: IC50

OC[C@H]1O[C@@H]2O[C@H]3[C@H](O)[C@@H](O)[C@@H](O[C@H]4[C@H](O)[C@@H](O)[C@@H](O[C@H]5[C@H](O)[C@@H](O)[C@@H](O[C@H]6[C@H](O)[C@@H](O)[C@@H](O[C@H]7[C@H](O)[C@@H](O)[C@@H](O[C@H]8[C@H](O)[C@@H](O)[C@@H](O[C@H]1[C@H](O)[C@H]2O)O[C@@H]8CO)O[C@@H]7CO)O[C@@H]6CO)O[C@@H]5CNC(=S)NCCN(CCNC(=S)NC[C@H]1O[C@@H]2O[C@H]5[C@H](O)[C@@H](O)[C@@H](O[C@H]6[C@H](O)[C@@H](O)[C@@H](O[C@H]7[C@H](O)[C@@H](O)[C@@H](O[C@H]8[C@H](O)[C@@H](O)[C@@H](O[C@H]9[C@H](O)[C@@H](O)[C@@H](O[C@H]%10[C@H](O)[C@@H](O)[C@@H](O[C@H]1[C@H](O)[C@H]2O)O[C@@H]%10CO)O[C@@H]9CO)O[C@@H]8CO)O[C@@H]7CO)O[C@@H]6CO)O[C@@H]5CO)CCNC(=S)Nc1ccccc1)O[C@@H]4CO)O[C@@H]3CO [compound no. 4, bis[2-[N′-(6^I-deoxycyclomaltoheptaos-6^I-yl)thioureido]ethyl] 2-(N′-phenylthioureido)ethylamine]
solubility in water [1]: 115 g·L^−1 and 62 mmol·L^−1

CO[C@H]1O[C@H](CO)[C@@H](O)[C@H](O)[C@H]1O [Me-α-D-Glcp, methyl-α-D-glucopyranoside, reference compound]
IC50 [2]: 865 µM
Relative affinity [2]: 1
Relative molar affinity [2]: 1

bis[2-[N′-(6^I-deoxycyclomaltoheptaos-6^I-yl)thioureido]ethyl] 2-(N′-methylthioureido)ethylamine [compound no. 3]
solubility of the Taxotere in a solution of the compound ([3]; 10 mmol.l^−1 of compound in sterile water, stirred at 70° C. until clear): 8300 µg/mL
stability of the Taxotere complex in solution once formed ([3]; ambient temperature, after complexation at 70° C.): remains in solution at ambient temperature

bis[2-[N′-(6^I-deoxycyclomaltoheptaos-6^I-yl)thioureido]ethyl] 2-[N′-[tris(2,3,4,6-tetra-O-acetyl-α-D-mannopyranosyloxy-methyl)methyl]thioureido]lethylamine [compound no. 6]
stability of the Taxotere complex in solution once formed [3]: remains in solution at ambient temperature
IC50 [2, 4]: 1130 µM
Relative affinity [2]: 0.76
Relative molar affinity [2]: 0.38

bis[2-[N′-(6^I-deoxycyclomaltoheptaos-6^I-yl)thioureido]ethyl] 2-[N′-[2-[bis[2-[N′-[tris(α-D-mannopyranosyloxymethyl) methyl]thioureido]ethyl] amino]ethyl]thioureido]ethylamine [compound no. 8]
IC50 [2, 4]: 49 µM
Relative affinity [2]: 17.7
Relative molar affinity [2]: 2.9
times more effectively recognized by ConA compared with the monovalent cyclodextrin dimer derivative, compound no. 5 ([2]; versus compound no. 5): up to 25 times

bis[2-[N′-(6^I-deoxycyclomaltoheptaos-6^I-yl)thioureido]ethyl] 2-[N′-[2-[bis[2-[N′-(α-D-mannopyranosyl)thioureido]ethyl] amino]ethyl]thioureido]ethyl amine [compound no. 7]
IC50 [2, 4]: 265 µM
Relative affinity [2]: 3.3
Relative molar affinity [2]: 1.1

bis[2-[N′-(6^I-deoxycyclomaltoheptaos-6^I-yl)thioureido]ethyl] 2- [N′-(α-D-mannopyranosyl)thioureido]ethylamine [compound no. 5]
IC50 [2, 4]: 1290 µM
Relative affinity [2]: 0.67
Relative molar affinity [2]: 0.67
